Key:
[1] = system: Yellowfever mosquitos (aedes aegypti); assay: Yellowfever mosquito water treatment test, 4th instar; assay type: in vivo; conditions: 50 ppm; after 6 days
Method: Yellowfever mosquitos (aedes aegypti)
The test compound (1 Vol % in acetone) was applied to water in glass dishes containing 4th instar aedes aegypti. The test dishes were maintained at about 25° C. and observed daily for mortality. Each test weas replicated in 3 test dishes.

[2] = system: Meloidogyne incognita J2 larvae; assay: Root-knot nematode solution assay; assay type: in vivo; conditions: 100 ppm; read after 72 hours; immobility regarded as mortality
Method: Test Procedures for Root-Knot Nematode Solution Assay (Meloidogyne incognita):
To microtiter plates containing about 1.0 mg of compound, 80:20 acetone was added to each well and the solution was mixed to obtain the desired compound concentration. The aqueous nematode suspension containing 20 to 50 Meloidogyne incognita J2 larvae per […] was added to each plate. The plates were then sealed and they were placed in an incubator at 27° C. and about 50% relative humidity. After 72 hours, the population mortality was read, whereby immobility of nematodes was regarded as mortality.

| SMILES | mortality compared to untreated controls [1] | mortality compared to untreated controls [2] |
| --- | --- | --- |
| Clc1ccc2c(c1)Oc1ccc(Cl)cc1C(N1CCNCC1)=N2 [I-B.23] | over 90% |  |
| FC(F)(F)c1ccc2c(c1)C(N1CCN(c3ccccc3)CC1)=Nc1ccccc1S2 [I-A.51] |  | 100% |
